Measured values taken from patent EP1101492A1, “NOVEL REMEDIES FOR ALLERGIC DISEASES” (FUJI YAKUHIN KOGYO KABUSHIKI KAISHA, priority 1998, dated 2000).

Legend:
[1] = test system: mouse experimental atopic dermatitis models; experiment: Auricle edema in experimental atopic dermatitis model (anti-DNP IgE sensitization, DNFB elicitation); format: in vivo, Balb/c mice; details: test compounds 60 mg/kg s.c., prednisolone 10 mg/kg i.p.; for % Inhibition IPR: auricle edema 1 hour post-elicitation; for % Inhibition IPR / % Inhibition LPR: once a day, 24 & 2 hours prior to DNFB-elicitation, vs untreated group; for % Inhibition LPR: auricle edema Day 1 post-elicitation; for % Inhibition vLPR: auricle edema Day 7 post-elicitation
Procedure: Intravenous injection of an anti-2,4-dinitrophenol (DNP) antibody (anti-DNP Ab, monoclonal IgE Ab; its antibody titer was 1 : 512 to 1 : 1024 by a rat heterologous passive cutaneous anaphylaxis reaction using a Wister rat) into a tail vein of female Balb/c mice (7-week old, body weight: 17 to 20 g, purchased from JAPAN SLC, Inc.) at a dose of […] per animal raised passive sensitization. Twenty four hours post-sensitization, 0.1% 2,4-dinitrofluorobenzene (DNFB; Nacalai Tesque, Inc.) in ethanol was painted onto both sides of a pair of mouse auricles at a dose of 10µL per each side for elicitation.
Fresh unsensitized mice were painted with 0.1% DNFB in ethanol onto their ear in the same manner as aforementioned and served as a control group. Not only immediately prior to elicitation but also 1 hour, 5 hours, daily between Days 1 and 14, and on Day 16 post-elicitation, ear thickness was measured using a dial thickness gauge (Peacock Co.). Each degree of auricle edemas was calculated: Auricular Edema (µm)=(Ear Thickness Post-Elicitation, µm) - (Ear Thickness immediately prior to Elicitation, µm) [formula]
Balb/c mice were passively sensitized with anti-DNP IgE Ab in the same manner as in Example 1. Twenty four hours later, 0.1% DNFB in ethanol was painted onto both sides of a pair of mouse auricles at a dose of 10 µL per each side for elicitation.
Immediately prior to elicitation, 1 hour and on Day 1 post-elicitation, auricle thickness was measured in the same manner as in Example 1. Each therapeutic efficacy is recorded as a percent inhibition wherein the "auricle edema (untreated group)" is used as a control. Auricle Edema Inhibition (%) = [ 1 -(Auricle Edema (Treated Group))/(Auricle Edema (Untreated Group))] × 100 (%) [formula]
Immediately prior to elicitation, and on Day 7 post-elicitation, auricle thickness was similarly measured. Each therapeutic efficacy is recorded as a percent inhibition wherein the auricle edema in the untreated group is used as a control.
Immediately prior to elicitation, and on Day 7 post-elicitation, auricle thickness was similarly measured. Each therapeutic efficacy is recorded as a percent inhibition wherein the auricle edema (untreated group) is used as a control.
Immediately prior to elicitation, at 1 and 4 hours and on Days 1, 3 and 7 post-elicitation, auricle thickness was similarly measured. From each auricle edema (µm) based on the auricle thickness immediately prior to elicitation, especially a prophylactically therapeutic efficacy of the test compound was evaluated.
Immediately prior to elicitation, at 0.5, 1 and 4 hours and on Days 1, 3 and 7 post-elicitation, auricle thickness was similarly measured. Each amount of auricle edemas was calculated (average± standard deviation).

[2] = Body weight gain in mice; details: test compounds 60 mg/kg s.c., prednisolone 10 mg/kg i.p., once a day for 6 days (Days 0-5), average ± standard deviation; for Body Weight Gain, Observation Day 5: non-administered 0.50± 0.23; for Body Weight Gain, Observation Day 7: non-administered 0.80± 0.48; for Body Weight Gain, Observation Day 10: non-administered 1.07± 0.58
Procedure: Accordingly, for assessing the side-effect each of the following test compounds an action on body weight gains was examined.
Next the mice were measured for their body weight. Each body weight gain was calculated on Days 5, 7 and 10 post-administration based on the body weight just prior to administration.

[3] = test system: guinea pig experimental bronchial asthma models; experiment: Experimental bronchial asthma model (ovalbumin inhalation): airway resistance and asthmatic death;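 as to all read-outs here: female Std:Hartley guinea pigs sensitized by inhaling nebulized ovalbumin once daily for 8 consecutive days, 8 to 11 animals per group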; details: test compounds 15 mg/kg s.c. (Compound No. 114: 30 mg/kg), prednisolone 10 mg/kg orally; for % Survival: asthmatic death within several minutes after elicitation, water for injection 54.5, 0.5% methyl cellulose 66.7; for % Amelioration in Airway Resistance, 1 Hour after Elicitation / % Amelioration in Airway Resistance, 6 Hours after Elicitation / % Amelioration in Airway Resistance, Immediately after Elicitation: 24 and 2 hours prior to elicitation, vs solvent control
Procedure: Guinea pigs (female, Std:Hartley, 3 weeks old, 200 to 250 g) were individually housed in a plastic chamber (width, 200 mm; depth, 300 mm; height, 167 mm). Aqueous ovalbumin (10 mg/mL) was administered to the guinea pigs once a day for sensitization by 10 min. inhalation with a nebulizer (5B, Nippon Shoji K.K.: flow rate, 6 L/min.) at a dose of 10 mg/mL during 8 cosecutive days. On Day 7 after the final sensitization, the guinea pigs were housed in a plastic chamber and inhaled using a nebulizer with a solution of ovalbumin (10 mg/mL) in physiological saline for 1 min. for elicitation (Matsumoto, T., et al., The Journal of Pharmacology and Experimental Therapeutics, 269: 1236-1244, 1994). The number of animals employed in the experiment was set to the extent there are at least 6 as individuals escaping asthmatic death. A solution of a test compound (Compound No. 130, 15 mg/kg) in water for injection was administered subcutaneously twice, i.e., 24 hours and 2 hours prior to elicitation. Similarly, the solvent alone was also administered to a negative control group. A suspension of prednisolone (10 mg/kg) in 0.5% aqueous methyl cellulose was administered orally twice, i.e., 24 hours and 2 hours prior to elicitation. Similarly, the solvent alone was also administered to another control group.
The evaluation for efficacies was conducted in terms of airway resistance. For this purpose, an apparatus dedicated to the measurement of airway resistance (K.K. Medical Agent) was employed. Measurement includes setting a guinea pig in a test chamber under a not-anesthetized condition, applying sinusoidal pressure waves of 30 Hz components to a part below the neck of the animal from the back side of the chamber, measuring respiratory waves of 30 Hz components leaking through the mouth (volume of 30 Hz air flow passing through the respiratory tract) in front of the neck, and calculating airway resistance mechanically. Measurement was carried out immediately prior to the first drug treatment (24 hours before elicitation), just prior to elicitation, 10 minutes, 1, 2, 4, 6, and 8 hours post-elicitation.
It was visually observed by a person carrying out said test in terms, of the appearance of cyanosis or suffocative death (asthmatic death) due to respiratory obstruction.
Guinea pigs were sensitized with ovalbumin and asthma was induced on Day 7 after final sensitization in the same manner as in Example 20. The number of animals employed in the experiment was set to the extent there are at least 6 as individuals escaping asthmatic death (8 to 11 animals/group). In the same manner as in Example 20, the animals were measured for airway resistance mechanically and each percent change (%) in airway resistance was calculated (each value just prior to elicitation was set as 100%). Each percent amelioration in airway resistance was calculated from the percent changes in airway resistance according to the following formula: Amelioration in Airway Resistance (%) = 1 -[((Percent Change in Airway Resistance after Drug-Administration) - (Value just prior to Challenge (100)))/((Percent Change in Airway Resistance after Solvent-Administration) - (Value just prior to Challenge (100)))]× 100 [formula]

[4] = daily from 3 to 6 days after DNFB-elicitation
[5] = daily from 1 day prior to through 5 days after DNFB-elicitation

| SMILES | % Inhibition IPR [1] | % Inhibition LPR [1] | % Inhibition vLPR [1, 4] | Body Weight Gain, Observation Day 5 [2] | Body Weight Gain, Observation Day 7 [2] | Body Weight Gain, Observation Day 10 [2] | % Inhibition vLPR [1, 5] | % Survival [3] | % Amelioration in Airway Resistance, 1 Hour after Elicitation [3] | % Amelioration in Airway Resistance, 6 Hours after Elicitation [3] | % Amelioration in Airway Resistance, Immediately after Elicitation [3] |
| --- | --- | --- | --- | --- | --- | --- | --- | --- | --- | --- | --- |
| CNC(=O)C(CCCCNC(C)=N)NC(=O)C(CC(C)C)C(C)C(=O)NO (racemic) [Compound No. 22, N^a-[4-(Hydroxyamino)-2(R)-isobutyl-3(RS)-methylsuccinyl]-N^e-acetimidoyl-L-lysine N-methylamide · 1 acetate] | 52.7% | 33.1% | 49.5% | 0.97± 0.31 | 0.80± 0.39 | 1.20± 0.53 |  |  |  |  |  |
| CNC(=O)C(CCCN)NC(=O)C(CC(C)C)C(CCCc1ccc(NC(=N)N)cc1)C(=O)NO (racemic) [Compound No. 46, N^a-[4-(Hydroxyamino)-2(R)-isobutyl-3(RS)-[3-(4'-guanidinophenyl)propyl]succinyl]-L-ornithine-N-methylamide · 2 acetate] |  | 46.7% |  | 1.08± 0.22 | 1.57± 0.33 | 1.33± 0.32 | 27.5% |  |  |  |  |
| CC(=N)NCc1ccc(CC(NC(=O)C(CC(C)C)C(CC(C)C)C(=O)NO)C(=O)NCCO)cc1 (racemic) [Compound No. 91, N^a-[4-(Hydroxyamino)-2(R),3(RS)-diisobutylsuccinyl]-4'-acetimidoyliminomethyl-L-phenylalanine N-(2-hydroxyethyl)amide · 2 acetate] |  | 43.0% |  | 1.28± 0.37 | 1.55± 0.48 | 1.30± 0.54 |  |  |  |  |  |
| CNC(=O)C(CCCNC(=N)N)NC(=O)C(CC(C)C)C(Cc1ccc(CN2C(=O)c3ccccc3C2=O)cc1)C(=O)NO (single isomer, unassigned) [Compound No. 51, N^a-[4-(Hydroxyamino)-2(R)-isobutyl-3(R or S)-(p-phthalimidomethylbenzyl)succinyl]-L-arginine N-methylamide · 1 acetate] |  |  |  |  |  |  |  | 70.0% | 59.1% | 56.3% | 30.1% |
| CNC(=O)[C@H](CCCCN)NC(=O)[C@H](CC(C)C)C(CCCc1ccc(C(=O)OC)cc1)C(=O)NO (single isomer, unassigned) [Compound No. 65, N^a-[4-(Hydroxyamino)-2(R)-isobutyl-3(R or S)-[3-(p-methoxycarbonylphenyl)propyl]succinyl]-L-lysine N-methylamide · 1 acetate] |  |  |  |  |  |  |  | 87.5% | 22.3% | 63.6% | 29.9% |
| CC(=N)N=Cc1ccc(C[C@H](NC(=O)[C@H](CC(C)C)C(CC(C)C)C(=O)NO)C(=O)NCCN(C)C)cc1.CC(=O)O.CC(=O)O (single isomer, unassigned) [Compound No. 90, N^a-[4-(Hydroxyamino)-2(R),3(R or S)-diisobutylsuccinyl]-4'-acetimidoyliminomethyl-L-phenylalanine N-(2-N',N'-dimethylaminoethyl)amide · 2 acetate] |  |  |  |  |  |  | 20.6% |  |  |  |  |
| CC(=O)O.CNC(=O)[C@H](Cc1ccc(CNC(C)=N)cc1)NC(=O)[C@H](CC(C)C)[C@H](O)C(=O)NO [Compound No. 43, N^a-[4-(Hydroxyamino)-2(R)-isobutyl-3(S)-hydroxysuccinyl]-4'-acetimidoyliminomethyl-L-phenylalanine N-methylamide · 1 acetate] | 38.2% | 39.2% | 43.6% |  |  |  |  |  |  |  |  |
| CC(=O)O.CNC(=O)[C@H](Cc1ccc(NC(=N)N)cc1)NC(=O)[C@@H](CC(=O)NO)CC(C)C [Compound No. 121, N-[4-(N-Hydroxyamino)-2(R)-isobutylsuccinyl]-L-4'-guanidophenylalanine-N-methylamide 1 acetate] |  |  |  |  |  |  |  | 88.9% | 56.4% | 102.2% |  |
| CC(=O)O.CNC(=O)[C@H](Cc1ccc(CNC(C)=N)cc1)NC(=O)[C@H](CC(C)C)[C@H](CCCc1ccccc1)C(=O)NO [Compound No. 126, N-[4-(N-Hydroxyamino)-2(R)-isobutyl-3(S)-(3-phenyltrimethylene)succinyl]-L-4'-acetimidoyliminomethylenephenyl alanine-N-methylamide · 1 acetate] | 38.2% | 39.2% | 44.7% |  |  |  |  |  |  |  |  |
| CC(=O)O.CC(C)C[C@H](C(=O)NO)[C@@H](CC(C)C)C(=O)N[C@@H](Cc1ccc(CN)cc1)C(=O)NCCC(=O)O [Compound No. 127, N-[4-(N-Hydroxyamino)-2(R),3(S)-diisobutylsuccinyl]-L-4'-aminomethylphenylalaninyl-β-alanine · 1 acetate] | 47.8% | 41.1% | 20.6% |  |  |  | 46.7% | 70.0% | 20.8% | 55.2% | 21.9% |
| CNC(=O)[C@H](Cc1ccc(CN)cc1)NC(=O)[C@H](CC(C)C)[C@@H](CCCc1ccccc1)C(=O)NO.Cl [Compound No. 128, N-[4-(N-Hydroxyamino)-2(R)-isobutyl-3(R)-(3-phenylpropyl)succinyl)-L-4'-aminomethylphenylalanine-N-methylamide · 1 hydrochloride] |  |  |  |  |  |  |  | 72.7% | 53.2% | 49.4% |  |
